#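 Assay format: 96-well plates, 48-hour exposure. TGI denotes the concentration required for complete inhibition of growth.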
# Legend:
# Experiment in all cases: NCI anticancer screen, dose series, 48 h
# [1] = system: LOX IMVI melanoma
# [2] = system: SK-OV-3 ovarian
# [3] = system: CAKI-1 renal
# [4] = system: 786-0 renal
# [5] = system: MOLT-4 leukemia
# [6] = system: SK-MEL-28 melanoma
# [7] = system: MDA-N
# [8] = system: HCT-116 colon
# [9] = system: BT-549 breast
# [10] = system: SF-295 CNS
# [11] = system: OVCAR-3 ovarian
# [12] = system: OVCAR-8 ovarian
# [13] = system: SW-620 colon
# [14] = system: EKVX NSCLC
# [15] = system: HOP-62 NSCLC
# [16] = system: DU-145 prostate
# [17] = system: SF-539 CNS
# [18] = system: RPMI-8226 leukemia
# [19] = system: SF-268 CNS
# [20] = system: KM12 colon
# [21] = system: NCI-H460 lung
# [22] = system: MALME-3M melanoma
# [23] = system: HCT-15 colon
# [24] = system: MDA-MB-435
# [25] = system: HOP-92 NSCLC
# [26] = system: NCI-H226 lung
# [27] = system: MDA-MB-231 breast
# [28] = system: A498 renal
# [29] = system: TK-10 renal
# [30] = system: NCI/ADR-RES ovarian
# [31] = system: SK-MEL-5 melanoma
# [32] = system: HT29 colon
# [33] = system: SN12C renal
# [34] = system: ACHN renal
# [35] = system: SNB-75 CNS
# [36] = system: T-47D breast
# [37] = system: UACC-257 melanoma
# [38] = system: NCI-H23 lung
# [39] = system: COLO 205 colon
# [40] = system: OVCAR-5 ovarian
# [41] = system: RXF 393 renal
# [42] = system: U251 CNS
# [43] = system: OVCAR-4 ovarian
# [44] = system: NCI-H522 lung
# [45] = system: PC-3 prostate
# [46] = system: K-562 leukemia
# [47] = system: HCC-2998 colon
# [48] = system: A549 NSCLC
# [49] = system: IGROV1 ovarian
# [50] = system: HL-60(TB) leukemia
# [51] = system: SK-MEL-2 melanoma
# [52] = system: SR leukemia
# [53] = system: UO-31 renal
# [54] = system: SNB-19 CNS
# [55] = system: CCRF-CEM leukemia
# [56] = system: MCF7 breast
# [57] = system: HS 578T breast
# [58] = system: M14 melanoma
# [59] = system: UACC-62 melanoma
smiles,measurement,setting,value
Cn1c2ccccc2n2c(=O)c3cccnc3c(C#N)c12,TGI,[1],> 100 µM
same,TGI,[2],> 100 µM
same,TGI,[3],> 100 µM
same,TGI,[4],> 100 µM
same,TGI,[5],> 100 µM
same,TGI,[6],> 100 µM
same,TGI,[7],> 100 µM
same,TGI,[8],> 100 µM
same,TGI,[9],> 100 µM
same,TGI,[10],> 100 µM
same,TGI,[11],> 100 µM
same,TGI,[12],> 100 µM
same,TGI,[13],> 100 µM
same,TGI,[14],> 100 µM
same,TGI,[15],> 100 µM
same,TGI,[16],> 100 µM
same,TGI,[17],> 100 µM
same,TGI,[18],> 100 µM
same,TGI,[19],> 100 µM
same,TGI,[20],> 100 µM
same,TGI,[21],> 100 µM
same,TGI,[22],> 100 µM
same,TGI,[23],> 100 µM
same,TGI,[24],> 100 µM
same,TGI,[25],> 100 µM
same,TGI,[26],30.1 µM
same,TGI,[27],> 100 µM
same,TGI,[28],> 100 µM
same,TGI,[29],> 100 µM
same,TGI,[30],> 100 µM
same,TGI,[31],> 100 µM
same,TGI,[32],> 100 µM
same,TGI,[33],> 100 µM
same,TGI,[34],> 100 µM
same,TGI,[35],> 100 µM
same,TGI,[36],> 100 µM
same,TGI,[37],> 100 µM
same,TGI,[38],> 100 µM
same,TGI,[39],> 100 µM
same,TGI,[40],> 100 µM
same,TGI,[41],> 100 µM
same,TGI,[42],> 100 µM
same,TGI,[43],> 100 µM
same,TGI,[44],> 100 µM
COC(=O)[C@H](Cc1ccccc1)NP(=O)(O)OCC1OC(n2cc(C)c(=O)[nH]c2=O)CC1N=[N+]=[N-] (stereo partly drawn),TGI,[1],> 100 µM
same,TGI,[2],> 100 µM
same,TGI,[45],> 100 µM
same,TGI,[3],> 100 µM
same,TGI,[4],> 100 µM
same,TGI,[5],> 100 µM
same,TGI,[46],> 100 µM
same,TGI,[47],> 100 µM
same,TGI,[6],> 100 µM
same,TGI,[48],> 100 µM
same,TGI,[49],> 100 µM
same,TGI,[50],> 100 µM
same,TGI,[7],> 100 µM
same,TGI,[8],> 100 µM
same,TGI,[10],> 100 µM
same,TGI,[11],> 100 µM
same,TGI,[51],> 100 µM
same,TGI,[52],> 100 µM
same,TGI,[12],> 100 µM
same,TGI,[13],> 100 µM
same,TGI,[14],> 100 µM
same,TGI,[15],> 100 µM
same,TGI,[16],> 100 µM
same,TGI,[53],> 100 µM
same,TGI,[17],> 100 µM
same,TGI,[18],> 100 µM
same,TGI,[19],> 100 µM
same,TGI,[20],> 100 µM
same,TGI,[54],> 100 µM
same,TGI,[21],> 100 µM
same,TGI,[22],> 100 µM
same,TGI,[23],> 100 µM
same,TGI,[55],> 100 µM
same,TGI,[24],> 100 µM
same,TGI,[25],> 100 µM
same,TGI,[26],> 100 µM
same,TGI,[27],> 100 µM
same,TGI,[56],> 100 µM
same,TGI,[28],> 100 µM
same,TGI,[29],> 100 µM
same,TGI,[57],> 100 µM
same,TGI,[30],> 100 µM
same,TGI,[58],> 100 µM
same,TGI,[31],> 100 µM
same,TGI,[32],> 100 µM
same,TGI,[33],> 100 µM
same,TGI,[34],> 100 µM
same,TGI,[35],> 100 µM
same,TGI,[36],> 100 µM
same,TGI,[37],> 100 µM
same,TGI,[38],> 100 µM
same,TGI,[39],> 100 µM
same,TGI,[40],> 100 µM
same,TGI,[41],> 100 µM
same,TGI,[42],> 100 µM
same,TGI,[43],> 100 µM
same,TGI,[44],> 100 µM
NCC(=O)N1CCN(c2nc(N3CCCC3)c3nc(Cl)c(NCc4ccccc4)nc3n2)CC1,TGI,[2],3.54 µM
same,TGI,[45],7.33 µM
same,TGI,[3],6.4 µM
same,TGI,[4],3.11 µM
same,TGI,[47],3.03 µM
same,TGI,[7],3.34 µM
same,TGI,[8],3.23 µM
same,TGI,[9],3.74 µM
same,TGI,[51],3.42 µM
same,TGI,[14],3.81 µM
same,TGI,[16],6.82 µM
same,TGI,[53],3.06 µM
same,TGI,[17],3.58 µM
same,TGI,[19],4.41 µM
same,TGI,[21],3.59 µM
same,TGI,[59],3.24 µM
same,TGI,[22],3.73 µM
same,TGI,[23],3.67 µM
same,TGI,[26],19 µM
same,TGI,[56],3.38 µM
same,TGI,[29],3.73 µM
same,TGI,[30],36.8 µM
same,TGI,[58],3.15 µM
same,TGI,[31],3.17 µM
same,TGI,[33],3.34 µM
same,TGI,[34],4.34 µM
same,TGI,[35],3.16 µM
same,TGI,[36],3.03 µM
same,TGI,[37],3.24 µM
same,TGI,[38],3.63 µM
same,TGI,[39],3.19 µM
same,TGI,[40],9.87 µM
same,TGI,[41],2.89 µM
same,TGI,[43],4.79 µM
O=C(/C=C\Nc1ccccc1O)C(Cl)(Cl)Cl,TGI,[1],> 100 µM
same,TGI,[2],> 100 µM
same,TGI,[45],> 100 µM
same,TGI,[3],> 100 µM
same,TGI,[4],64.7 µM
same,TGI,[5],> 100 µM
same,TGI,[46],> 100 µM
same,TGI,[47],52.6 µM
same,TGI,[6],> 100 µM
same,TGI,[48],> 100 µM
same,TGI,[49],> 100 µM
same,TGI,[50],> 100 µM
same,TGI,[7],59.2 µM
same,TGI,[8],> 100 µM
same,TGI,[9],> 100 µM
same,TGI,[10],35.2 µM
same,TGI,[11],43.1 µM
same,TGI,[51],> 100 µM
same,TGI,[12],> 100 µM
same,TGI,[13],> 100 µM
same,TGI,[14],> 100 µM
same,TGI,[15],52.7 µM
same,TGI,[16],> 100 µM
same,TGI,[53],76.5 µM
same,TGI,[17],> 100 µM
same,TGI,[18],> 100 µM
same,TGI,[19],> 100 µM
same,TGI,[20],> 100 µM
same,TGI,[54],> 100 µM
same,TGI,[21],> 100 µM
same,TGI,[59],> 100 µM
same,TGI,[22],> 100 µM
same,TGI,[23],> 100 µM
same,TGI,[55],> 100 µM
same,TGI,[24],43.8 µM
same,TGI,[25],> 100 µM
same,TGI,[26],> 100 µM
same,TGI,[27],> 100 µM
same,TGI,[56],64.5 µM
same,TGI,[28],> 100 µM
same,TGI,[29],> 100 µM
same,TGI,[57],> 100 µM
same,TGI,[30],> 100 µM
same,TGI,[58],> 100 µM
same,TGI,[31],> 100 µM
same,TGI,[32],> 100 µM
same,TGI,[33],> 100 µM
same,TGI,[34],> 100 µM
same,TGI,[35],> 100 µM
same,TGI,[36],96.4 µM
same,TGI,[37],> 100 µM
same,TGI,[38],> 100 µM
same,TGI,[39],> 100 µM
same,TGI,[40],> 100 µM
same,TGI,[41],> 100 µM
same,TGI,[42],81.8 µM
same,TGI,[43],> 100 µM
same,TGI,[44],65 µM
